Series [1] is described as follows: Change over time of AcCh amount in aqueous pH solutions (standard sample). Type of series: physicochemical. The note with it: pH 4.1 to pH 3.1, after 12 days. How it is done:
A method for stabilizing choline esters in eggplants was examined. […] Therefore, firstly, the concentration change over time of an AcCh standard sample was examined under neutral and acidic conditions. The neutral solution (pH 7.0) was a phosphate buffer solution, and the acidic solutions (pH 4.1, pH 3.6, pH 3.1, pH 2.6) were prepared by adding acetic acid; the pH solutions with an AcCh concentration of 1.9 mg/mL were allowed to remain at ambient temperature (23 to 25° C.) for 0, 3, 6, 12 days, and then the AcCh content was quantified.

The subject of series [2] is spontaneously hypertensive rats (SHR). Briefly: Single oral administration test in spontaneously hypertensive rats (tail cuff blood pressure, heart rate). Conditions: SHRs after 12 hours of fasting. The format is in vivo, rat. How it is done:
The lyophilized eggplant powder was prepared by washing a 'Senshu' water eggplant from […], Osaka-fu with water, by sterilizing the eggplant with hypochlorous acid, and by finely grinding the edible part after lyophilisation. […] In order to compare the blood pressure-lowering effect, an administration test of an AcCh standard sample of 1.00×10^-9 mol/kg was performed in the same manner and the systolic blood pressure was measured. To a control group only water was administered under the same conditions. 0, 3, 6, 9, and 24 hours after the oral administration, systolic blood pressure, diastolic blood pressure and heart rate were measured by the tail cuff method using the non-invasive blood pressure measuring instrument Softron BP-98A (Softron Co., Ltd., Tokyo).

The test system is the same in series [3]. In words: Repeated oral administration test of AcCh in SHR that did not fast. Type of series: in vivo, rat. The note with it: in SHRs, weight assumed 370 g. An excerpt: (§1) This AcCh dose at which a blood pressure-lowering effect occurred in SHRs in normal condition upon oral ingestion was extrapolated to humans using Kleiber's law (Non-Patent Document 22). According to Kleiber's law, the mammalian metabolic rate is assumed to be proportional to the ¾ power of body weight, assuming the SHR weight to be 370 g and human weight to be 60 kg, the effective dose for humans is estimated to be 45.4 times the effective dose for SHRs.
(§2) When this AcCh dose was extrapolated to humans using Kleiber's law (Non-Patent Document 22), the upper limit of the daily human effective dose was 3.36×10^−6 mol (491 μg). Therefore, the daily effective dose for humans with high blood pressure having genetic characteristics such as SHRs was estimated to be in the range of 5 to 500 μg.

The test system of series [4] is humans. In words: Extrapolation of effective AcCh dose from SHR to humans by Kleiber's law. The arrangement: species or system human.
Text: as §1, §2

The test system of series [5] is spontaneously hypertensive rats (SHR). Conditions: purified compound, SHRs, single oral administration; cited from earlier work.
The test system of series [6] is thoracic aorta ring specimens of SHR. Briefly: Vascular isometric tension measurement test (phenylephrine-constricted thoracic aorta rings). Also noted: species or system rat. Conditions: standard sample. How it is done: The ground eggplant samples used for the experiment were prepared as follows. […] 14-week-old male SHRs (body weight 320 to 346 g) were put to death by laparotomy and exsanguination under ether anaesthesia, and the thoracic aorta was quickly removed. The isolated aorta was immersed in physiological saline and the blood was thoroughly rinsed off, and then the connective tissue and adipose tissue attached to the blood vessel were removed in a Krebs-Henseleit solution to prepare a ring specimen with a width of about 2 to 3 mm. The resulting ring specimens were attached inside an organ bus of an isometric tension test device (UFER UC-05[…]., Kyoto) filled with Krebs-Henseleit solution of 37° C. (119 mM NaCl/4.7 mM KCl/1.1 mM KH2PO4/1.2 mM MgSO4/25 mM NaHCO3, pH 7.4) in which a mixed gas of 95% O2-5% CO2 was aerated, then a static tension of 1.0 g was applied and the ring specimens were stabilized for 60 minutes. […] The change in tension was measured and recorded by using a transducer (UFER UM-20, Iwashiya Kishimoto Ika Sangyo Co., Ltd.), the dilation rate (%) was calculated by equation (1) hereinafter, and the mean value±standard error (Mean±S. E.) was determined by repeating the test results three times. […]

SMILES strings stand for the structures.

As for `CC(=O)OCC[N+](C)(C)C` [AcCh, acetylcholine], in series [1], the AcCh remaining is listed as at least 97%. In addition, in series [2], the “effective daily dose of AcCh” value is 1e-09 mol/kg. Further, in series [3], the “effective daily intake of AcCh causing a blood pressure lowering effect” value is 3.7e-09 mol. In series [4], the “lower limit of the daily effective dose for humans” value was 3.36e-08 mol and the “upper limit of the daily human effective dose” value is 3.36e-06 mol.

In the case of `CCCC(=O)OCC[N+](C)(C)C` [BuCh, butyrylcholine], the blood pressure-lowering effect result in series [5] is “blood pressure-lowering effect is shown”.

As to `O=C(/C=C/c1ccc(O)c(O)c1)O[C@@H]1C[C@](O)(C(=O)O)C[C@@H](O)[C@H]1O` [Chlorogenic acid], the “effect on blood vessels” value in series [6] (11 μg/mL) is “no effect on blood vessels was observed”.

For the compound `CCC(=O)OCC[N+](C)(C)C` [PrCh, propionylcholine], in series [5], the blood pressure-lowering effect entry is listed as “blood pressure-lowering effect is shown”.

`NCCCC(=O)O` [γ-aminobutyric acid (GABA), γ-aminobutyric acid]: the “effect on blood vessels” value in series [6] (4.8 μg/mL) is on record as “no effect on blood vessels was observed”.

Values taken from US20220030896A2, “CHOLINE ESTER-CONTAINING COMPOSITION FOR ORAL INGESTION” (Shinshu University, priority 2016, published 2022).
